Here are results for five molecules from patent US11311506B2, “Controlling biofilms with cyclopropanated fatty acids” (THE UNIVERSITY OF MEMPHIS RESEARCH FOUNDATION, priority 2018, dated 2022).

In series [1] the test system is Staphylococcus aureus biofilm. Kind of series: Biofilm dispersion measurements (Staphylococcus aureus), Luciferase assay for ATP production. The settings on record: 500 μg/mL; preformed 7-day S. aureus biofilm; FIG. 1. The class given is cell-based. As for the experimental part:
Biofilm was formed using Staphylococcus aureus in a 96-well plate format. Each well of the plate was seeded with 150 μL of bacterial culture and incubated for 24 hours to allow for biofilm growth. The medium in each well was changed every 24 hours for 5 days and every 12 hours for two additional days. On day 7, 135 μL of Tryptic Soy Broth (TSB) and 15 μL of C2DA, T2DA, or 2-CP were added to yield final concentrations of each test compound ranging from 0 to 1000 μg/mL. The plate was then incubated for one hour and the turbidity of each solution was determined at 540 nm. Bacterial growths were then aspirated from all wells and the plates were washed several times with water.
(§1) The relative percentage of attached cells as compared to non-treated controls was assessed using a Luciferase assay for ATP production.

Series [2] concerns P. aeruginosa (PA-ATCC 27317). Kind of series: Synergy checkerboard assay, biofilm inhibition (P. aeruginosa). The class given is cell-based. The settings on record: for FICI / Interpretation: antibiotic combined with 2-CP; for MIC for antibiotic (combined): combined with 2-CP. The procedure:
(§2) Synergy assays were performed to determine the effects of 2-CP when used in combination with various antimicrobials against gram positive S. aureus and gram negative P. aeruginosa. […] Final antibiotic concentrations varied based on their respective minimum inhibitory concentration for each organism and are given in Table 1. […] Inhibition was defined as a lack of visible growth after a 24 hr incubation period. The fractional inhibitory concentration index (FICI) was used to determine synergistic, additive, or antagonistic responses between the three antibiotics and 2-CP.

Series [3] relates to Mouse fibroblast cells (NIH3T3). Put plainly: Cytocompatibility, CellTiter Glow cell viability. The class given is cell-based. As for the experimental part:
Mouse fibroblast cells (NIH3T3) were seeded (1×10^4 cells/cm^2) in 24-well plates in Dulbecco's Modified Eagle's Medium (DMEM) supplemented with 10% fetal bovine serum and 100 μg/mL Normocin for 24 hours at 37° C. and 5% CO2. Concentrations of C2DA, T2DA, and 2-CP ranging from 0 to 1000 μg/mL were added to various wells. The plate was incubated for 24 hours and cell viability was measured using CellTiter Glow.

The subject of series [4] is Staphylococcus aureus (UAMS1) biofilm. Put plainly: Biofilm eradication with antibiotics, MBEC plate (Example 8, S. aureus). The series is classed as cell-based. The procedure:
(§3) Staphylococcus aureus (UAMS1) was grown overnight in TSB by incubation at 37° C. Pseudomonas aeruginosa (ATCC 27317) was grown overnight in a similar manner. S. aureus was diluted 1:10 in TSB and P. aeruginosa was diluted 1:50. Bacterial dilutions were added at a volume of 150 μL into each well of a 96-well MBEC′ Biofilm Inoculator plate, followed by overnight incubation to form the biofilm. The next day the medium from each well was carefully aspirated allowing the biofilm to remain both on the pegs of the top plate and the bottom of the wells. […] These plates were incubated at 37° C. for 24 hours. The next day the peg plates (top plate) were removed and added to new plates containing 150 μL of sterile TSB in each well. Plates were sonicated for 5 minutes to remove the viable bacteria attached to the peg surface and later incubated for 24 hours. Turbidity was measured by reading absorbance at 540 nm for bacterial growth in the presence of fixed concentrations of the antibiotics with varying concentrations of 2-CP and C2DA.

In series [5] the test system is Pseudomonas aeruginosa (ATCC 27317) biofilm. Put plainly: Biofilm eradication with antibiotics, MBEC plate (Example 8, P. aeruginosa). The series is classed as cell-based. The settings on record: for FICI / Interpretation: P. aeruginosa eradication, antibiotic combined with 2-CP; for FICI: 4000 μg/mL used for 2-CP alone; for MEC for antibiotic (combined): combined with 2-CP. The procedure:
as §3

In series [6] the test system is Staphylococcus aureus biofilm. Put plainly: Biofilm eradication with antibiotics, MBEC Biofilm Inoculator plate, turbidity at 540 nm (Example 3). The class given is cell-based. Conditions: 24 h. The procedure:
Overnight cultures of Staphylococcus aureus were prepared by inoculating 2 mL of TSB followed by incubation overnight at 37° C. The following day, 1 mL of this stock was diluted in 10 mL of TSB. A total of 150 μL of the diluted stock was seeded into each well of a 96-well MBECTM Biofilm Inoculator plate, followed by incubation overnight to allow biofilm growth. All media and planktonic bacteria were then aspirated from each well thus allowing the biofilm to remain both on the bottom of each well and on the pegs on the top of the plate. […] The plates were incubated for 24 hours at 37° C. Following incubation, the pegs were removed and added to new plates containing 150 μL of sterile TSB in each well. Plates and pegs were then sonicated for 5 minutes to remove any viable bacteria attached to the pegs, followed by incubation for 24 hours. Turbidity was determined via absorbance at 540 nm to access bacterial growth in the presence of fixed concentration of antibiotics and varying concentrations of […] and 2-CP. In this assay, the live bacteria that remained attached to the pegs grew overnight and increased turbidity.

Series [7] relates to S. aureus (UAMS-1). Put plainly: Synergy checkerboard assay, biofilm inhibition (S. aureus). The class given is cell-based. The settings on record: for MIC for antibiotic (combined): combined with 2-CP. The procedure: as §2
Series [8] has as its system Pseudomonas aeruginosa (ATCC 27317) biofilm. Kind of series: Biofilm dispersion measurements (Pseudomonas aeruginosa), Luciferase assay for ATP production. The series is classed as cell-based. The settings on record: 125 or 250 μg/mL, 24 h; FIG. 7. As for the experimental part: Biofilm was formed using Pseudomonas aeruginosa (ATCC 27317) in a 96-well plate format. Each well of the plate was seeded with 150 μL of bacterial culture and incubated for 24 hours. […] The plate was then incubated for 24 hours and the medium was aspirated and the plate washed several times.
as §1

The test system of series [9] is biofilm formation. The settings on record: background statement; cited from earlier work.
The subject of series [10] is bacterial growth. The settings on record: background statement; cited from earlier work.

Turning to `CCCCCCCC1CC1C(=O)O` (stereo not drawn) [2-CP, cis-2-heptylcyclopropanyl-1-carboxylic acid], in series [1], the “ability to disperse biofilm (percentage of dispersed cells)” value is recorded as “increased ability to disperse biofilm as compared to its unsaturated fatty acid analog, C2DA”. For the same molecule, the concentration inhibiting growth in series [2] (2-CP alone) and in series [7] (2-CP alone) was 4 mg/mL throughout. The MIC was determined as 4000 mg/L in series [2] (Pseudomonas aeruginosa, ATCC27317, 24 hr, read-out: MIC for 2-CP (alone)) and 4000 mg/L in series [7] (Staphylococcus aureus, 24 hr, read-out: MIC for 2-CP (alone)). Besides, the “MIC for 2-CP (combined)” value in series [2] (combined with Levofloxacin) was 1000 mg/L; in series [2] (combined with Tetracycline) it was 1000 mg/L; in [2] (combined with Tobramycin), 31 mg/L; in series [7] (combined with Levofloxacin), 500 mg/L; in series [7] (combined with Tetracycline) it was 62.5 mg/L; in series [7] (combined with Tobramycin), 31 mg/L. In addition, in series [3] (NIH3T3, 0 to 1000 μg/mL, 24 h, FIG. 4), the “cytocompatibility (percentage of viable cells vs PBS control)” value is “cytocompatibility equal to C2DA”. Also, in [3] (NIH3T3, 24 h), the “concentration exhibiting significant cytotoxicity toward mammalian cells” value is 1000 µg/mL. The “MEC for 2-CP (alone)” value in series [4] (S. aureus biofilm eradication) and in series [5] (P. aeruginosa biofilm eradication) was greater than 4000 each time. Besides, the “biofilm eradication by the substance alone” value is listed as “did not eradicate biofilm at any concentration tested” in series [4] (S. aureus, alone) and “did not eradicate biofilm at any concentration tested” in series [5] (P. aeruginosa, alone). The “MEC for 2-CP (combined)” value worked out at 125 in series [4] (S. aureus, combined with Tetracycline); 31.25 in [4] (S. aureus, combined with Tobramycin); 250 in [5] (P. aeruginosa, combined with Levofloxacin); 250 in [5] (P. aeruginosa, combined with Tobramycin). For the same molecule, the “turbidity (absorbance at 540 nm) of bacteria surviving on pegs” value in series [6] (increasing concentration of 2-CP (0-500 μg/mL) with fixed […] tobramycin, FIG. 2) was “significantly lower”. For the same molecule, the “biofilm eradication in combination with tetracycline” value in series [6] (with tetracycline at […], fatty acid 0-500 μg/mL, FIG. 3) is given as “eradicated the biofilm at lower concentrations than C2DA”. Also, in series [8], the “ability to disperse biofilm (relative percentage of attached cells)” value is “increased ability to disperse biofilm as compared to T2DA and controls”.
Take `CCCCCCC/C=C\C(=O)O` [C2DA, cis-2-decenoic acid]: the “concentration capable of inhibiting biofilm formation” value in [9] was 125 µg/mL. For the same molecule, the “concentration that may inhibit bacterial growth” value in [10] is 500 µg/mL.
Take `C[C@H]1COc2c(N3CCN(C)CC3)c(F)cc3c(=O)c(C(=O)O)cn1c23` [Levofloxacin]: in [2], the “MIC for antibiotic (alone)” value is 1 mg/L, the FICI came to 0.8 and the “MIC for antibiotic (combined)” value was 0.5 mg/L. For the same molecule, in series [5] (P. aeruginosa), the “MEC for antibiotic (alone)” value stood at 0.3 µg/mL and the “MEC for antibiotic (combined)” value came to 0.08 µg/mL. In series [5], the FICI was 0.33. In [7], the “MIC for antibiotic (alone)” value was 1 mg/L and the “MIC for antibiotic (combined)” value was found to be 0.25 mg/L. For the same molecule, the FICI in series [7] (antibiotic combined with 2-CP) was determined as 0.4.
For the molecule `CN(C)[C@@H]1C(O)=C(C(N)=O)C(=O)[C@@]2(O)C(O)=C3C(=O)c4c(O)cccc4[C@@](C)(O)[C@H]3C[C@@H]12` [Tetracycline], in series [2], the “MIC for antibiotic (alone)” value worked out at 32 mg/L, the FICI is 0.8 and the “MIC for antibiotic (combined)” value is 16 mg/L. In series [7], the “MIC for antibiotic (alone)” value turned out to be 1 mg/L and the “MIC for antibiotic (combined)” value turned out to be 0.5 mg/L.
As for `NC[C@H]1O[C@H](O[C@H]2[C@H](O)[C@@H](O[C@H]3O[C@H](CO)[C@@H](O)[C@H](N)[C@H]3O)[C@H](N)C[C@@H]2N)[C@H](N)C[C@@H]1O` [Tobramycin], the entries for the “MIC for antibiotic (alone)” value in series [2] and in [7] were 0.5 mg/L and 4 mg/L, respectively. In addition, the FICI in series [2] was 0.5; in series [4] (S. aureus eradication, antibiotic combined with 2-CP, 4000 μg/mL used for 2-CP alone) it was 0.51; in [5], 0.5625; in [7] (antibiotic combined with 2-CP), 0.5. For the same molecule, the Interpretation entry in series [2] is “Syner-”; in series [2] (listed as tobramycin), “synergistic”; in series [4] (S. aureus eradication, antibiotic combined with 2-CP) it was “Additive”; in [4] (S. aureus eradication, antibiotic combined with 2-CP, listed as tobramycin), “additive”; in series [5] it was “Additive”; in [5] (listed as tobramycin), “additive”. Moreover, the Interpretation result in [7] (antibiotic combined with 2-CP) is given as “synergistic”. For the same molecule, the results for the “MIC for antibiotic (combined)” value in [2] and in series [7] were 0.25 mg/L and 2 mg/L, respectively. Moreover, the entries for the “MEC for antibiotic (alone)” value in series [4] (S. aureus) and in [5] (P. aeruginosa) were 2.5 µg/mL and 0.5 µg/mL, respectively. In addition, the “MEC for antibiotic (combined)” value stood at 1.25 µg/mL in [4] (S. aureus, combined with 2-CP) and 0.25 µg/mL in series [5] (P. aeruginosa).
